Source: the NIST ThermoML archive (doi:10.1021/je201391j)
± gives the expanded uncertainty stated by the source.

Conditions: 101 kPa, Liquid mixture 1, Pendant Drop method

CCCC[N+]1(C)CCCC1.O=S(=O)([N-]S(=O)(=O)C(F)(F)F)C(F)(F)F + CCCCO
Conditions	interfacial tension [mN/m]
293.15 K	0.666 ± 0.2
295.65 K	0.576 ± 0.2
298.15 K	0.443 ± 0.2
300.65 K	0.368 ± 0.2
303.15 K	0.276 ± 0.2
305.65 K	0.163 ± 0.2
